One assay concerns the target T1, PKMYT1 enzyme (Homo sapiens, UniProt Q99640).
T1 construct: purchased Thermo Scientific A33387
T1 sequence (Q99640 1-499): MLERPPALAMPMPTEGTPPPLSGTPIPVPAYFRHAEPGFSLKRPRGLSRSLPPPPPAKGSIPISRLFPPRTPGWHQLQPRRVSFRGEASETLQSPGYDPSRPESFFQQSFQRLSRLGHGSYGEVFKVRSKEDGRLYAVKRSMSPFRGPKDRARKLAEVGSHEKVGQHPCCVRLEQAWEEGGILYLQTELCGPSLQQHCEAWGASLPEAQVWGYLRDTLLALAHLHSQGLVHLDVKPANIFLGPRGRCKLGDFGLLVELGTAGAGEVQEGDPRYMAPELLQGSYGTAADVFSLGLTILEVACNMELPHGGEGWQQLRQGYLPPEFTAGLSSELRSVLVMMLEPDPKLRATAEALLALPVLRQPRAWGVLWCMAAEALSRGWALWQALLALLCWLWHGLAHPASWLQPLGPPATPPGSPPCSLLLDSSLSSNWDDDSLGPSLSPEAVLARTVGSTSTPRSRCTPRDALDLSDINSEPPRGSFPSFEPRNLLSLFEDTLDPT
The assay can be described thus: PKMYT1 enzyme inhibition activity, ADP-GLO method. The note with it: PKMYT1 enzyme 10 nM, ATP 5 µM, 37°C 90 minutes; read-out: ADP-GLO IC50. It is filed as biochemical.

In the next assay the test system is HCC1569 cells. The experiment in a line: Cytostatic activity, CTG assay (HCC1569). Conditions: 5 days. Format: cell-based. As for the experimental part:
Biological test example 2. Cytostatic activity of compounds of the present disclosure
CTG assay (HCC1569) was used to verify the biological activity of some of the example compounds of the present disclosure.
HCC1569 cells were purchased from ATCC (Cat. No.: CRL-2330) and cultured in a 37°C, 5% CO2 cell culture incubator. HCC1569 complete medium: RPMI-1640 liquid medium (Cat. No.: Gibico 11875-093), 20% FBS (Cat. No.: Gibico 10099-141), 1% Pen Strep (Cat. No.: Gibico 15070-063).
HCC1569 cells in a 75 cm^2 culture flask were digested with 2 mL of trypsin for 2-3 min, and then neutralized with 2 mL of 1640 complete medium. The mixture was centrifuged at 1200 rpm for 5 minutes. Cells were resuspended using 4 mL of 1640 complete medium. 500 µL of cell suspension was taken for cell counting using Vi-CELL-XR cell counter.
Using a Multidrop instrument, the HCC1569 cells were seeded in a 384-well plate at a density of 1000 cells per well (50 µL 1640 Growth Media) and administrated 24 hours later.
Using an ultra-micro pipette, the test compound (concentration: 3.33 mM, dissolved in DMSO) was diluted with 10 µM as the highest starting concentration, and then sequentially diluted in 10 gradients at a ratio of 1:3 (10000 nM, 3333 nM, 1111 nM, 370 nM, 123 nM, 41 nM, 13.7 nM, 4.6 nM, 1.5 nM, 0.5 nM) for administration treatment, with two duplicate wells for each concentration; 14 wells for positive and negative controls were set, with the positive control being the duplicate wells of 10 µM positive compound and the negative control being the duplicate wells of DMSO.
After the administration was completed, the cells were placed in a 37°C incubator for further culture for 5 days. After 5 days, 25 µL of CTG buffer was added to each well for CTG assay detection, and analyzed using a microplate reader. CTG readings were analyzed.
a = CTG value (highest concentration), b = CTG value (blank well), x = CTG value(test well).
IC50 was calculated using GraphPad PRISM 8.
Log10 (A compound concentration) was used for statistical calculation. (2) The data were input into GraphPad PRISM 8, and Analysis was selected. (3) Nonlinear regression (curve fit) was selected. (4) Log (inhibitor) vs. response-Variable slope was selected. (5) The calculation formula was selected, and the calculation was carried out according to the following formula: Y = Bottom + (Top-Bottom)/(1+10^((LogIC50-X)*HillSlope)), X: logarithm of dose or concentration, Y: response value, Top and Bottom: peak and bottom values. (6) The data were fitted to obtain IC50 values. (7) The fitting conditions were adjusted according to the specific data. Appropriate Constraint conditions were adjusted for Bottom, Top, and HillSlope. The curve that best fits the actual situation has been reached.

Molecules are shown by their SMILES.

Description for PKMYT1 enzyme: Enzyme inhibition activity of compounds of the present disclosure
The enzyme activity of some of the example compounds was verified using the ADP-GLO method.
PKMYT1 enzyme protein was purchased from Thermo Scientific (Cat. No.: A33387), and the ADP-GLO kit was purchased from Promega (Cat. No.: V9103).
PKMYT1 enzyme activity reaction buffer: 70 mM HEPES, 3 mM MgCl2, 3 mM MnCl2, 50 µg mL-1PEG20000, 3 µM sodium orthovanadate, 1.2 mM DTT.
The reaction plate with the added compounds was centrifuged at 2500 rpm for 1 minute.
The prepared enzyme solution was added to the reaction plate, 5 µL per well, and the final concentration of enzyme was 10 nM. The reaction plate was centrifuged at 1000 rpm for 1 minute. The reaction plate was placed in an incubator at 37°C for 15 minutes.
The prepared ATP substrate solution was added to the reaction plate, 5 µL per well, and the final concentration of ATP was 5 µM. The reaction plate was centrifuged at 1000 rpm for 1 minute. After sealing the plate with aluminum foil, the plate was placed in an incubator and the reaction was carried out at 37°C for 90 minutes.
10 µL of ADP-glo™ reagent was added to stop the kinase reaction and consume unconsumed ATP, leaving only ADP and a very low ATP background. The reaction plate was centrifuged at 1000 rpm for 1 minute. After sealing the plate with aluminum foil, the reaction was carried out at room temperature for 60 minutes.
ADP was converted to ATP by adding 20 µL of kinase detection reagent, and luciferase and luciferin were introduced to detect ATP. The reaction plate was centrifuged at 1000 rpm for 1 minute. After sealing the plate with aluminum foil, the reaction was carried out at room temperature for 60 minutes.
The ADP-GLO luminescence signal values were read by the microplate reader PHERAstar, and the readings were analyzed.

On to `C#Cc1cnc2c(c1)c(C(N)=O)c(N)n2-c1c(C)c(O)cc(F)c1C` [Example 101], for which the IC50 at PKMYT1 enzyme is 6.8 nM; in the assay with HCC1569 cells (Homo sapiens, HCC1569, 120 h) it was 94 nM.
In the case of `Cc1nc2c(cc1C1=CCCC1)c(C(N)=O)c(N)n2-c1c(C)c(O)cc(F)c1C` [Example 116], the IC50 at PKMYT1 enzyme was 25.9 nM; in the assay on HCC1569 cells (Homo sapiens, HCC1569, 120 h), 28 nM.
Consider `Cc1nc2c(cc1F)c(C(N)=O)c(N)n2-c1c(C)c(O)cc(F)c1C` [Example 105], for which the IC50 on PKMYT1 enzyme amounted to 2.43 nM; in the assay with HCC1569 cells (Homo sapiens, HCC1569, 120 h), 54 nM.
For the compound `C=C(C)c1cnc2c(c1)c(C(N)=O)c(N)n2-c1c(C)c(O)cc(F)c1C` (atropisomer, axis not shown) [Example 133.1], the IC50 on PKMYT1 enzyme stood at 2.43 nM; in the assay on HCC1569 cells, 12 nM.
On to `C=Cc1nc2c(cc1C)c(C(N)=O)c(N)n2-c1c(C)c(O)cc(F)c1C` [Example 122], for which the 50% inhibitory concentration (IC50) turned out to be 8.71 nM on PKMYT1 enzyme and 28 nM with HCC1569 cells (Homo sapiens, HCC1569, 120 h).
Consider `Cc1c(O)cc(F)c(C)c1-n1c(N)c(C(N)=O)c2cc(C3CCCCC3)cnc21` [Example 102], for which the IC50 is 27.3 nM at PKMYT1 enzyme and 82 nM with HCC1569 cells (Homo sapiens, HCC1569, 120 h).
For `Cc1c(O)cc(F)c(C)c1-n1c(N)c(C(N)=O)c2cc3c(nc21)CCC3` [Example 179], the IC50 came to 3.13 nM on PKMYT1 enzyme and 22 nM in the assay with HCC1569 cells (Homo sapiens, HCC1569, 120 h).
In the case of `Cc1nc2c(cc1-c1nccs1)c(C(N)=O)c(N)n2-c1c(C)c(O)cc(F)c1C` [Example 127], the IC50 on PKMYT1 enzyme stood at 9.17 nM; with HCC1569 cells (Homo sapiens, HCC1569, 120 h), 14 nM.
For `Cc1nc2c(cc1-c1ccncc1)c(C(N)=O)c(N)n2-c1c(C)c(O)cc(F)c1C` [Example 129], the IC50 at PKMYT1 enzyme came out at 10.5 nM; in the assay on HCC1569 cells (Homo sapiens, HCC1569, 120 h), 38 nM.
On to `Cc1cc(F)c(O)c(C)c1-n1c(N)c(C(N)=O)c2cc(Br)c(C)nc21` [Example 58, 2-Amino-5-bromo-1-(4-fluoro-3-hydroxy-2,6-dimethylphenyl)-6-methyl-1H-pyrrolo[2,3-b]pyridine-3-carboxamide], for which the IC50 on PKMYT1 enzyme was 3.57 nM; in the assay on HCC1569 cells (Homo sapiens, 120 h), 70 nM.
With `Cc1c(O)cc(F)c(C)c1-n1c(N)c(C(N)=O)c2cc(-c3ccccc3)cnc21` (racemic) [Example 119], the IC50 at PKMYT1 enzyme is 15.2 nM; with HCC1569 cells (Homo sapiens, HCC1569, 120 h), 44 nM.
Regarding `Cc1c(O)cc(F)c(C)c1-n1c(N)c(C(N)=O)c2cc(C(C)C)cnc21` (atropisomer, axis not shown) [Example 113.2], the IC50 at PKMYT1 enzyme was 4.1 nM; with HCC1569 cells (Homo sapiens, HCC1569, 120 h), 3 nM.
With `Cc1cc(F)c(O)c(C)c1-n1c(N)c(C(N)=O)c2cc(C3CC3)c(C)nc21` (single isomer, unassigned) [Example 141.1], the IC50 on PKMYT1 enzyme amounted to 2.56 nM; with HCC1569 cells (Homo sapiens, HCC1569, 120 h), 61 nM.
For `Cc1nc2c(cc1-c1cccnc1)c(C(N)=O)c(N)n2-c1c(C)c(O)cc(F)c1C` [Example 131], in that order: 11.2 nM and 23 nM.
Take `CCc1nc2c(cc1C)c(C(N)=O)c(N)n2-c1c(C)c(O)cc(F)c1C` [Example 136]: the IC50 at PKMYT1 enzyme stood at 9.9 nM; in the assay on HCC1569 cells (Homo sapiens, HCC1569, 120 h) it was 21 nM.
Consider `Cc1nc2c(cc1C1CCCC1)c(C(N)=O)c(N)n2-c1c(C)c(O)cc(F)c1C` [Example 112], for which the 50% inhibitory concentration (IC50) worked out at 33.8 nM on PKMYT1 enzyme and 18 nM with HCC1569 cells (Homo sapiens, HCC1569, 120 h).
Turning to `Cc1cc(F)c(O)c(C)c1-n1c(N)c(C(N)=O)c2cc(N3CCC3)c(C)nc21` (atropisomer, axis not shown) [Example 173.2], the concentration for half-maximal inhibition (IC50) on PKMYT1 enzyme was 4.5 nM; with HCC1569 cells (Homo sapiens, HCC1569, 120 h) it was 65 nM.
The matching figures for `Cc1cc(F)c(O)c(C)c1-n1c(N)c(C(N)=O)c2cc(C(C)C)cnc21` (atropisomer, axis not shown) [Example 170.2]: 10 nM and 80 nM.
Regarding `Cc1cc2c(C(N)=O)c(N)n(-c3c(C)c(O)cc(F)c3C)c2nc1-c1cccnc1` [Example 123], the IC50 at PKMYT1 enzyme is 6.48 nM; in the assay on HCC1569 cells (Homo sapiens, HCC1569, 120 h) it was 58 nM.
`Cc1nc2c(cc1C1CC1)c(C(N)=O)c(N)n2-c1c(C)c(O)cc(F)c1C` [Example 110]: the 50% inhibitory concentration (IC50) is 5.77 nM at PKMYT1 enzyme and 15 nM in the assay on HCC1569 cells (Homo sapiens, HCC1569, 120 h).
Take `Cc1c(O)cc(F)c(C)c1-n1c(N)c(C(N)=O)c2cc(C(C)C)cnc21` (racemic) [Example 113]: the 50% inhibitory concentration (IC50) is 8.33 nM at PKMYT1 enzyme and 18 nM in the assay on HCC1569 cells (Homo sapiens, HCC1569, 120 h).
For `Cc1c(O)cc(F)c(C)c1-n1c(N)c(C(N)=O)c2cc(Br)cnc21` [Example 99], the IC50 was determined as 9.68 nM on PKMYT1 enzyme and 40 nM with HCC1569 cells (Homo sapiens, HCC1569, 120 h).
For the compound `Cc1nc2c(cc1C(F)(F)F)c(C(N)=O)c(N)n2-c1c(C)c(O)cc(F)c1C` [Example 120, 2-amino-1-(3-fluoro-5-hydroxy-2,6-dimethylphenyl)-6-methyl-5-(trifluoromethyl)-1H-pyrrolo[2,3-b]pyridine-3-carboxamide], the IC50 worked out at 9.09 nM on PKMYT1 enzyme and 14 nM in the assay with HCC1569 cells (Homo sapiens, 120 h).
Regarding `C=Cc1cc2c(C(N)=O)c(N)n(-c3c(C)c(O)cc(F)c3C)c2nc1C` (racemic) [Example 111], the IC50 came to 3.57 nM at PKMYT1 enzyme and 13 nM with HCC1569 cells (Homo sapiens, HCC1569, 120 h).
Take `Cc1nc2c(cc1-c1cnn(C)c1)c(C(N)=O)c(N)n2-c1c(C)c(O)cc(F)c1C` [Example 128]: the IC50 worked out at 16.9 nM on PKMYT1 enzyme and 69 nM in the assay with HCC1569 cells (Homo sapiens, HCC1569, 120 h).
The matching figures for `Cc1c(O)cc(F)c(C)c1-n1c(N)c(C(N)=O)c2cc(-c3ccnn3C)cnc21` (racemic) [Example 118]: 4.1 nM and 65 nM.
As for `Cc1cc2c(C(N)=O)c(N)n(-c3c(C)c(O)cc(F)c3C)c2nc1C` (atropisomer, axis not shown) [Example 21], the IC50 is 4.13 nM at PKMYT1 enzyme and 20 nM in the assay with HCC1569 cells.
As for `Cc1nc2c(cc1Br)c(C(N)=O)c(N)n2-c1c(C)c(O)cc(F)c1C` (racemic) [Example 104], the IC50 on PKMYT1 enzyme turned out to be 3.21 nM; with HCC1569 cells (Homo sapiens, HCC1569, 120 h) it was 15 nM.
For the compound `Cc1cc(F)c(O)c(C)c1-n1c(N)c(C(N)=O)c2cc(C3CC3)c(C)nc21` (atropisomer, axis not shown) [Example 141], the IC50 is 5.8 nM on PKMYT1 enzyme and 76 nM in the assay with HCC1569 cells (Homo sapiens, HCC1569, 120 h).
As for `Cc1cc(F)c(O)c(C)c1-n1c(N)c(C(N)=O)c2cc(N(C)C)c(C)nc21` (atropisomer, axis not shown) [Example 169.1], the 50% inhibitory concentration (IC50) was 6.31 nM at PKMYT1 enzyme and 78 nM with HCC1569 cells (Homo sapiens, HCC1569, 120 h).
For `Cc1nc2c(cc1N1CCOCC1)c(C(N)=O)c(N)n2-c1c(C)c(O)cc(F)c1C` [Example 134], in that order: 33.6 nM and 56 nM.
`Cc1nc(C2CC2)c2c(C(N)=O)c(N)n(-c3c(C)ccc(O)c3C)c2n1` (atropisomer, axis not shown) [Example 62.2]: the IC50 on PKMYT1 enzyme is 14.4 nM; in the assay with HCC1569 cells (Homo sapiens, HCC1569, 120 h), 60 nM.
For `CCc1cc2c(C(N)=O)c(N)n(-c3c(C)c(O)cc(F)c3C)c2nc1C` (atropisomer, axis not shown) [Example 132], the IC50 at PKMYT1 enzyme is 8.92 nM; in the assay on HCC1569 cells it was 30 nM.
Consider `CCCc1ncc2c(C(N)=O)c(N)n(-c3c(C)ccc(O)c3C)c2n1` [Example 87], for which, at PKMYT1 enzyme, the IC50 was 3.35 nM.
The same measure, in the same setting: as for `Cc1cc(F)c(O)c(C)c1-n1c(N)c(C(N)=O)c2cc(OC3CCC3)c(C)nc21` [Example 96], the figure is 9.4 nM.
On to `Cc1cc(F)c(O)c(C)c1-n1c(N)c(C(N)=O)c2cc(N3CCCC3)c(C)nc21` (atropisomer, axis not shown) [Example 162.1], for which the 50% inhibitory concentration (IC50) at PKMYT1 enzyme stood at 9.1 nM.
On to `Cc1cc(F)c(O)c(C)c1-n1c(N)c(C(N)=O)c2c3c(c(C)nc21)CCC3` (racemic) [Example 176], for which, on PKMYT1 enzyme, the IC50 worked out at 9.81 nM.
